Measurements reported in patent publication US7858630B2, “D3 and 5-HT2A receptor modulators” (Hoffmann-La Roche Inc., priority 2008, dated 2010).

Assays:
[1] = molecular target: T1, human serotonin 5-HT2A receptor (Homo sapiens, UniProt P28223); experiment: Radioligand binding ([3H]-ketanserin) to membranes of HEK-293 EBNA cells expressing human 5-HT2A receptor; settings: 1.1 nM [3H]-ketanserin, HEK-293 EBNA membranes, 1 h at RT
T1 construct: expressed in transfected cells; host or cells: HEK-293 EBNA cells, transient transfection; membrane preparation
T1 sequence (P28223 whole entry): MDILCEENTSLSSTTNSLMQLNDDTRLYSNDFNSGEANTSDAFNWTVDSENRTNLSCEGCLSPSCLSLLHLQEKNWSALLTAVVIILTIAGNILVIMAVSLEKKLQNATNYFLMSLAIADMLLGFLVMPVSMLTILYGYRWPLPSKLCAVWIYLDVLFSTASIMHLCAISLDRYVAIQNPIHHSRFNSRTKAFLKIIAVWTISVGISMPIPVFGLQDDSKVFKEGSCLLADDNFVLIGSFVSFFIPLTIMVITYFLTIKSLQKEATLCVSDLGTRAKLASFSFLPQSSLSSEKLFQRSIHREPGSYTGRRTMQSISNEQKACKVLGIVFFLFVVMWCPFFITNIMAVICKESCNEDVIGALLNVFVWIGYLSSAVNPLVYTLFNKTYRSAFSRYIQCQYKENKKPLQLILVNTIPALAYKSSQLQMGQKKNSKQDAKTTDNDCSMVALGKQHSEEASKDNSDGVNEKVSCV
Outline: (§1)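 Membranes from HEK-293 EBNA cells transiently transfected with the receptor were incubated 1 h at RT with ten test concentrations (10 μM–0.1 nM) and ~0.7 nM [3H]-spiperone (D2), 0.5 nM [3H]-spiperone (D3) or 1.1 nM [3H]-ketanserin (5-HT2A). Nonspecific binding was set with 10 μM spiperone, bound radioactivity was read by filtration and scintillation, and Ki was taken from IC50 via Cheng-Prusoff.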

[2] = molecular target: T2, human dopamine D3 receptor (Homo sapiens, UniProt P35462); experiment: Radioligand binding ([3H]-spiperone) to membranes of HEK-293 EBNA cells expressing human D3 receptor; settings: human D3, 0.5 nM [3H]-spiperone, HEK-293 EBNA membranes, 1 h at RT
T2 construct: expressed in transfected cells; host or cells: HEK-293 EBNA cells, transient transfection; membrane preparation
T2 sequence (P35462 whole entry): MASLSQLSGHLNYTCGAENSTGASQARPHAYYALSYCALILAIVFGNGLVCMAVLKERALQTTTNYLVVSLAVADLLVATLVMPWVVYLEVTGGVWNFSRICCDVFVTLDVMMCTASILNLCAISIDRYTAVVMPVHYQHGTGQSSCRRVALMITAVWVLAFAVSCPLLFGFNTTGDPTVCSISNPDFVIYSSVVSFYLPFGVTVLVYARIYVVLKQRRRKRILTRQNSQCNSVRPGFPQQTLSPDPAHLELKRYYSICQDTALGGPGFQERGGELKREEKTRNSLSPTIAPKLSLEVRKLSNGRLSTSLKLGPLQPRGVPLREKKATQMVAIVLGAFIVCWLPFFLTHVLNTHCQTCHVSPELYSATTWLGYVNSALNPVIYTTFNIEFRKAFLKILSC
Outline: as §1

[3] = molecular target: T3, human dopamine D2 receptor (Homo sapiens, UniProt P14416); experiment: Radioligand binding ([3H]-spiperone) to membranes of HEK-293 EBNA cells expressing human D2 receptor; settings: human D2, 0.7 nM [3H]-spiperone, HEK-293 EBNA membranes, 1 h at RT
T3 construct: expressed in transfected cells; host or cells: HEK-293 EBNA cells, transient transfection; membrane preparation
T3 sequence (P14416 whole entry): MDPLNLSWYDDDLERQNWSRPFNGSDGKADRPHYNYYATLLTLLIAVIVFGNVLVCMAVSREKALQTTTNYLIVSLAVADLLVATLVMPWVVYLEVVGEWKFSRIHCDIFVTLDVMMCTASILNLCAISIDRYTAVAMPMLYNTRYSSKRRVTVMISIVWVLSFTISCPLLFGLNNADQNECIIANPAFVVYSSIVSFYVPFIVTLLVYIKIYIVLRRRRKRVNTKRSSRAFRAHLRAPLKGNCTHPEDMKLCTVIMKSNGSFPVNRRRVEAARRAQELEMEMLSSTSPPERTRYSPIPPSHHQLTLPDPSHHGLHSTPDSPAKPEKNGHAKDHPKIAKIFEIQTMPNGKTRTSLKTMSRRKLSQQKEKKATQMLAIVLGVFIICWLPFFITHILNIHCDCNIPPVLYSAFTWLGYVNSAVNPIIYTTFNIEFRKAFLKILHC
Outline: as §1

Ki [1] [nM] | Ki [2] [nM] | Ki [3] [nM] | SMILES
8.55 | 5.85 | 11100 | O=C(N[C@H]1CC[C@H](CCN2CCN(c3noc4cc(F)c(Cl)cc34)CC2)CC1)C1CC(Cl)C1 (stereo partly drawn) [Example 83, 3-Chloro-cyclobutanecarboxylic acid N-trans-(4-{2-[4-(5-chloro-6-fluoro-benzo[d]isoxazol-3-yl)-piperazin-1-yl]-ethyl}-cyclohexyl)-amide]
7.47 | 8.2 | 368 | COc1ccc(C(=O)N[C@H]2CC[C@H](CCN3CCN(c4noc5cc(F)c(Cl)cc45)CC3)CC2)s1 [Example 85, 5-Methoxy-thiophene-2-carboxylic acid N-trans-(4-{2-[4-(5-chloro-6-fluoro-benzo[d]isoxazol-3-yl)-piperazin-1-yl]-ethyl}-cyclohexyl)-amide]
8.6 | 9.97 | 401 | O=C(CO)N[C@H]1CC[C@H](CCN2CCN(c3noc4cc(F)c(Cl)cc34)CC2)CC1 [Example 87, N-trans-(4-{2-[4-(5-Chloro-6-fluoro-benzo[d]isoxazol-3-yl)-piperazin-1-yl]-ethyl}-cyclohexyl)-2-hydroxy-acetamide]
16.7 | 31.1 | 11200 | CO[C@H]1CC[C@H](CC(=O)N[C@H]2CC[C@H](CCN3CCN(c4noc5cc(F)c(Cl)cc45)CC3)CC2)CC1 [Example 88, N-trans-(4-{2-[4-(5-Chloro-6-fluoro-benzo[d]isoxazol-3-yl)-piperazin-1-yl]-ethyl}-cyclohexyl)-2-trans-(4-methoxy-cyclohexyl)-acetamide]
2.89 | 5.72 | 11200 | CS(=O)(=O)CC(=O)N[C@H]1CC[C@H](CCN2CCN(c3noc4cc(F)c(Cl)cc34)CC2)CC1 [Example 89, N-trans-(4-{2-[4-(5-Chloro-6-fluoro-benzo[d]isoxazol-3-yl)-piperazin-1-yl]-ethyl}-cyclohexyl)-2-methanesulfonyl-acetamide]

The remaining lines, values behind:

SMILES | Ki [1] [nM] | Ki [2] [nM] | Ki [3] [nM]
Cc1cc(CC(=O)N[C@H]2CC[C@H](CCN3CCN(c4noc5cc(F)c(Cl)cc45)CC3)CC2)on1 [Example 82, N-trans-(4-{2-[4-(5-Chloro-6-fluoro-benzo[d]isoxazol-3-yl)-piperazin-1-yl]-ethyl}-cyclohexyl)-2-(3-methyl-isoxazol-5-yl)-acetamide] | 2.99 | 1.37 | 11100
O=C(N[C@H]1CC[C@H](CCN2CCN(c3noc4cc(F)c(Cl)cc34)CC2)CC1)c1ccc(Cl)s1 [Example 84, 5-Chloro-thiophene-2-carboxylic acid N-trans-(4-{2-[4-(5-chloro-6-fluoro-benzo[d]isoxazol-3-yl)-piperazin-1-yl]-ethyl}-cyclohexyl)-amide] | 7.11 | 2.94 | 258
CCC(=O)N[C@H]1CC[C@H](CCN2CCN(c3noc4cc(F)c(Cl)cc34)CC2)CC1 [Example 86, N-trans-(4-{2-[4-(5-Chloro-6-fluoro-benzo[d]isoxazol-3-yl)-piperazin-1-yl]-ethyl}-cyclohexyl)-propionamide] | 9.53 | 5.16 | 250
CS(=O)(=O)CCC(=O)N[C@H]1CC[C@H](CCN2CCN(c3noc4cc(F)c(Cl)cc34)CC2)CC1 [Example 90, N-trans-(4-{2-[4-(5-Chloro-6-fluoro-benzo[d]isoxazol-3-yl)-piperazin-1-yl]-ethyl}-cyclohexyl)-3-methanesulfonyl-propionamide] | 7.64 | 14.3 | 1190
COC(=O)N[C@H]1CC[C@H](CCN2CCN(c3noc4cc(F)c(Cl)cc34)CC2)CC1 [Example 91, N-trans-(4-{2-[4-(5-Chloro-6-fluoro-benzo[d]isoxazol-3-yl)-piperazin-1-yl]-ethyl}-cyclohexyl)-carbamic acid methyl ester] | 1.84 | 0.58 | 197
